Columns and labels:
[1] = biological target: T1, human A2a adenosine receptor (Homo sapiens, UniProt P29274); assay: Ligand Binding Assay for Adenosine A2a Receptor (A2A-B); conditions: HEK293 plasma membrane, radioligand [3H]CGS21680
T1 construct: purchased PerkinElmer RB-HA2a; host or cells: HEK293
Procedure: Ligand Binding Assay for Adenosine A2a Receptor
Ligand binding assay of adenosine A2a receptor was performed using plasma membrane of HEK293 cells containing human A2a adenosine receptor (PerkinElmer, RB-HA2a) and radioligand [^3H]CGS21680 (PerkinElmer, NET 1021). Assay was set up in 96-well polypropylene plate in total volume of 200 μL by sequentially adding 20 μL 1:20 diluted membrane, 130 μL assay buffer (50 mM Tris.HCl, pH7.4 10 mM MgCl2, 1 mM EDTA) containing [^3H] CGS21680, 50 μL diluted compound (4×) or vehicle control in assay buffer. Nonspecific binding was determined by […] NECA. Reaction was carried out at room temperature for 2 hours before filtering through 96-well GF/C filter plate pre-soaked in 50 mM Tris.HCl, pH7.4 containing 0.3% polyethylenimine. Plates were then washed 5 times with cold 50 mM Tris.HCl, pH7.4, dried and sealed at the bottom. Microscintillation fluid 30 μL was added to each well and the top sealed. Plates were counted on Packard Topcount for [^3H]. Data was analyzed in Microsoft Excel and GraphPad Prism programs. (Varani, K.; Gessi, S.; Dalpiaz, A.; Borea, P. A. British Journal of Pharmacology, 1996, 117, 1693)

[2] = biological target: T2, human adenosine A1 receptor (Homo sapiens, UniProt P30542); assay: Adenosine A1 Receptor Functional Assay (A1GAL2); assay type: cell-based; conditions: CHO-K1 cells, cAMP inducible beta-galactosidase reporter, 4 nM r-PIA/1 uM Forskolin challenge
T2 construct: expressed in transfected cells; host or cells: CHO-K1
T2 sequence (P30542 1-326): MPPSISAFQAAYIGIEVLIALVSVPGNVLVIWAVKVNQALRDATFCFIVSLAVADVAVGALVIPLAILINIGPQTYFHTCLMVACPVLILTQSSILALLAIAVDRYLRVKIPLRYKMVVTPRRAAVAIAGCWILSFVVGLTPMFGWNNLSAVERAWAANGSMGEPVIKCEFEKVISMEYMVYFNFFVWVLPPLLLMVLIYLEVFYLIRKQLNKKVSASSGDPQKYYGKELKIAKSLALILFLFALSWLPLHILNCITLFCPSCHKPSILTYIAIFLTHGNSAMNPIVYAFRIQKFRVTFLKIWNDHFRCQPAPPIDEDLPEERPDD
Procedure: Adenosine A1 Receptor Functional Assay (A1GAL2)
To initiate the functional assay, cryopreserved CHO-K1 cells overexpressing the human adenosine A1 receptor and containing a cAMP inducible beta-galactosidase reporter gene were thawed, centrifuged, DMSO containing media removed, and then seeded with fresh culture media into clear 384-well tissue culture treated plates (BD #353961) at a concentration of 10K cells/well. Prior to assay, these plates were cultured for two days at 37° C., 5% CO2, 90% Rh. On the day of the functional assay, culture media was removed and replaced with 45 uL assay medium (Hams/F-12 Modified (Mediatech # 10-080CV) supplemented w/0.1% BSA). Test compounds were diluted and 11 point curves created at a 1000× concentration in 100% DMSO. Immediately after addition of assay media to the cell plates, […] of the appropriate test compound antagonist or agonist control curves were added to cell plates using a Cartesian Hummingbird. Compound curves were allowed to incubate at room temperature on cell plates for approximately 15 minutes before addition of a 4 nM r-PIA (Sigma P4532)/1 uM Forskolin (Sigma F3917) agonist challenge (5 uL volume). A control curve of r-PIA in 1 uM Forskolin, a DMSO/Media control, and a single dose of Forskolin were also included on each plate. After additions, cell plates were allowed to incubate at 37° C., 5% CO2, 90% Rh for 5.5-6 hours. After incubation, media was removed, and cell plates were washed 1×50 uL with DPBS w/o Ca & Mg (Mediatech 21-031-CV).
Into dry wells, 20 uL of 1× Reporter Lysis Buffer (Promega E3971 (diluted in dH2O from 5× stock)) was added to each well and plates frozen at −20° C. overnight. For β-galactosidase enzyme calorimetric assay, plates were thawed out at room temperature and 20 μL 2× assay buffer (Promega) was added to each well. Color was allowed to develop at 37° C., 5% CO2, 90% Rh for 1-1.5 h or until reasonable signal appeared. The calorimetric reaction was stopped with the addition of 60 μL/well 1M sodium carbonate. Plates were counted at 405 nm on a SpectraMax Microplate Reader (Molecular Devices). Data was analyzed in Microsoft Excel and IC/EC50 curves were fit using a standardized macro.

[3] = biological target: T3, human adenosine A2a receptor (Homo sapiens, UniProt P29274); assay: Adenosine A2a Receptor Functional Assay (A2AGAL2); assay type: cell-based; conditions: CHO-K1 cells, cAMP inducible beta-galactosidase reporter, 15 nM NECA agonist challenge
T3 construct: expressed in transfected cells; host or cells: CHO-K1
T3 sequence (P29274 whole entry): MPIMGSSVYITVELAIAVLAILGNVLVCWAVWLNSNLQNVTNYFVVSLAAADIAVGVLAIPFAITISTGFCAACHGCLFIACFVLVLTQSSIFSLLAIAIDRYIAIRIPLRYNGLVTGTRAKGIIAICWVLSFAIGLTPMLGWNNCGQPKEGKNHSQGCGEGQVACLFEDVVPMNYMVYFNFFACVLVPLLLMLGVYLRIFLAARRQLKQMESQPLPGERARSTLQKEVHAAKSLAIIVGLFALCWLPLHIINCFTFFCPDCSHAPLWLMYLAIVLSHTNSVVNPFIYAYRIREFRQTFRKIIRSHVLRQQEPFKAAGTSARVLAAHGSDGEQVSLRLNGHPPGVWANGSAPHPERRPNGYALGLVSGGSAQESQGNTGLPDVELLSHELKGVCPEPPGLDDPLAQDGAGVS
Procedure: Adenosine A2a Receptor Functional Assay (A2AGAL2)
To initiate the functional assay, cryopreserved CHO-K1 cells overexpressing the human adenosine A2a receptor and containing a cAMP inducible beta-galactosidase reporter gene were thawed, centrifuged, DMSO containing media removed, and then seeded with fresh culture media into clear 384-well tissue culture treated plates (BD #353961) at a concentration of 10K cells/well. Prior to assay, these plates were cultured for two days at 37° C., 5% CO2, 90% Rh. On the day of the functional assay, culture media was removed and replaced with 45 uL assay medium (Hams/F-12 Modified (Mediatech # 10-080CV) supplemented w/0.1% BSA). Test compounds were diluted and 11 point curves created at a 1000× concentration in 100% DMSO. Immediately after addition of assay media to the cell plates, 50 nL of the appropriate test compound antagonist or agonist control curves were added to cell plates using a Cartesian Hummingbird. Compound curves were allowed to incubate at room temperature on cell plates for approximately 15 minutes before addition of a 15 nM NECA (Sigma E2387) agonist challenge (5 uL volume). A control curve of NECA, a DMSO/Media control, and a single dose of Forskolin (Sigma F3917) were also included on each plate. After additions, cell plates were allowed to incubate at 37° C., 5% CO2, 90% Rh for 5.5-6 hours. After incubation, media was removed, and cell plates were washed 1×50 uL with DPBS w/o Ca & Mg (Mediatech 21-031-CV). Into dry wells, 20 uL of 1× Reporter Lysis Buffer (Promega E3971 (diluted in dH2O from 5× stock)) was added to each well and plates frozen at −20° C. overnight. For β-galactosidase enzyme calorimetric assay, plates were thawed out at room temperature and 20 μL 2× assay buffer (Promega) was added to each well. Color was allowed to develop at 37° C., 5% CO2, 90% Rh for 1-1.5 h or until reasonable signal appeared. The calorimetric reaction was stopped with the addition of 60 μL/well 1M sodium carbonate. Plates were counted at 405 nm on a SpectraMax Microplate Reader (Molecular Devices). Data was analyzed in Microsoft Excel and IC/EC50 curves were fit using a standardized macro.

T1 sequence (P29274 whole entry): as above

SMILES | Ki [1] | Ki [2] | Ki [3]
Nc1nc(-c2cccs2)nc2sc(CN3CCOCC3)cc12 [Example 26, 6-Morpholin-4-ylmethyl-2-thiophen-2-yl-thieno[2,3-d]pyrimidin-4-ylamine] | 207 nM | – | –
Nc1nc(-c2cc(F)cc(F)c2)nc2sc(CN3CCC(F)CC3)cc12 [Example 55, 2-(3,5-Difluoro-phenyl)-6-(4-fluoro-piperidin-1-ylmethyl)-thieno[2,3-d]pyrimidin-4-ylamine] | – | 3410 nM | 1060 nM
Nc1nc(-c2cc(F)cc(F)c2)nc2sc(CN3CCOCC3)cc12 [Example 47, 2-(3,5-Difluoro-phenyl)-6-morpholin-4-ylmethyl-thieno[2,3-d]pyrimidin-4-ylamine] | – | 2300 nM | 349 nM
N#Cc1ccc(-c2nc(N)c3cc(CN4CCCCCC4)sc3n2)cc1 [Example 67, 4-(4-Amino-6-azepan-1-ylmethyl-thieno[2,3-d]pyrimidin-2-yl)-benzonitrile] | – | 8550 nM | 384 nM
Nc1nc(-c2cccc(F)c2)nc2sc(CN3CCC(F)CC3)cc12 [Example 60, 2-(3-Fluoro-phenyl)-6-(4-fluoro-piperidin-1-ylmethyl)-thieno[2,3-d]pyrimidin-4-ylamine] | – | 1250 nM | 300 nM
Nc1nc(-c2ccco2)nc2sc(CN3CCC(F)(F)C3)cc12 [Example 94, 6-(3,3-Difluoro-pyrrolidin-1-ylmethyl)-2-furan-2-yl-thieno[2,3-d]pyrimidin-4-ylamine] | – | 1240 nM | 8.23 nM
CCc1ccc(-c2nc(N)c3cc(CN4CCOCC4)sc3n2)o1 [Example 8, 2-(5-Ethyl-furan-2-yl)-6-morpholin-4-ylmethyl-thieno[2,3-d]pyrimidin-4-ylamine] | – | > 610 nM | 78.2 nM
CCN(CC)Cc1cc2c(N)nc(-c3ccc(C(F)F)o3)nc2s1 [Example 103, 6-Diethylaminomethyl-2-(5-difluoromethyl-furan-2-yl)-thieno[2,3-d]pyrimidin-4-ylamine] | – | 2090 nM | 131 nM
Nc1nc(-c2cccc(O)c2)nc2sc(CN3CCOCC3)cc12 [Example 106, 3-(4-Amino-6-morpholin-4-ylmethyl-thieno[2,3-d]pyrimidin-2-yl)-phenol] | – | 2440 nM | 816 nM
N#Cc1cccc(-c2nc(N)c3cc(CN4CCCC4c4ccccc4)sc3n2)c1 (centres unmarked) [Example 20, 3-[4-Amino-6-(2-phenyl-pyrrolidin-1-ylmethyl)-thieno[2,3-d]pyrimidin-2-yl]-benzonitrile] | – | 762 nM | 154 nM
Nc1nc(-c2ccc(F)c(F)c2)nc2sc(CN3CCOCC3)cc12 [Example 50, 2-(3,4-Difluoro-phenyl)-6-morpholin-4-ylmethyl-thieno[2,3-d]pyrimidin-4-ylamine] | – | 2890 nM | 361 nM
Nc1nc(-c2cccc(Cl)c2)nc2sc(CN3CCC(F)CC3)cc12 [Example 48, 2-(3-Chloro-phenyl)-6-(4-fluoro-piperidin-1-ylmethyl)-thieno[2,3-d]pyrimidin-4-ylamine] | – | 855 nM | 733 nM
C[C@@H]1CCC[C@H](C)N1Cc1cc2c(N)nc(-c3ccc(C(C)(C)C)s3)nc2s1 [Example 13, 2-(5-tert-Butyl-thiophen-2-yl)-6-(2,6-dimethyl-piperidin-1-ylmethyl)-thieno[2,3-d]pyrimidin-4-ylamine] | – | > 927 nM | > 2340 nM

Now from value to molecule:

Ki [1] | Ki [2] | Ki [3] | SMILES
– | 740 nM | 209 nM | Nc1nc(-c2ccc3c(c2)OCO3)nc2sc(CN3CCC(F)CC3)cc12 [Example 76, 2-Benzo[1,3]dioxol-5-yl-6-(4-fluoro-piperidin-1-ylmethyl)-thieno[2,3-d]pyrimidin-4-ylamine]
– | 732 nM | 27.6 nM | C[C@@H]1CCC[C@H](C)N1Cc1cc2c(N)nc(-c3ccc(C(F)F)o3)nc2s1 [Example 102, 2-(5-Difluoromethyl-furan-2-yl)-6-(2,6-dimethyl-piperidin-1-ylmethyl)-thieno[2,3-d]pyrimidin-4-ylamine]
– | 678 nM | 1010 nM | Nc1nc(-c2ccon2)nc2sc(CN3CCOCC3)cc12 [Example 16, 2-Isoxazol-3-yl-6-morpholin-4-ylmethyl-thieno[2,3-d]pyrimidin-4-ylamine]
– | 504 nM | 130 nM | C[C@@H]1CCC[C@H](C)N1Cc1cc2c(N)nc(-c3ccon3)nc2s1 [Example 18, 6-(2,6-Dimethyl-piperidin-1-ylmethyl)-2-isoxazol-3-yl-thieno[2,3-d]pyrimidin-4-ylamine]
– | 634 nM | 348 nM | Nc1nc(-c2cc3ccccc3o2)nc2sc(CN3CCC(F)CC3)cc12 [Example 59, 2-Benzofuran-2-yl-6-(4-fluoropiperidin-1-ylmethyl)thieno[2,3-d]pyrimidin-4-ylamine]
– | 616 nM | 123 nM | Nc1nc(-c2cccc(F)c2)nc2sc(CN3CCOCC3)cc12 [Example 61, 2-(3-Fluoro-phenyl)-6-morpholin-4-ylmethyl-thieno[2,3-d]pyrimidin-4-ylamine]
– | 331 nM | 73.6 nM | Nc1nc(-c2cccc(F)c2)nc2sc(CN3CCSCC3)cc12 [Example 58, 2-(3-Fluoro-phenyl)-6-thiomorpholin-4-ylmethyl-thieno[2,3-d]pyrimidin-4-ylamine]
– | 464 nM | 64.5 nM | C[C@@H]1CCC[C@H](C)N1Cc1cc2c(N)nc(-c3cccc(C#N)c3)nc2s1 [Example 23, 3-[4-Amino-6-(2,6-dimethyl-piperidin-1-ylmethyl)-thieno[2,3-d]pyrimidin-2-yl]-benzonitrile]
